From article PMC5745756, “N,N-disubstituted azines attenuate LPS-mediated neuroinflammation in microglia and neuronal apoptosis via inhibiting MAPK signaling pathways” (BMC Neuroscience, 2017)
Read-outs that look alike come from different tables or passages of the source.

Assays:
Format in all cases: cell-based, murine
[1] = tested on: NO production in LPS-activated BV-2 cells; test: Nitrite (Griess) assay of NO production in LPS-activated BV-2 cells; details: Mus musculus, read-out: IC50, concentration that caused 50% inhibition of NO production in LPS-activated BV-2 cells
Experimental: (§1) […] or MTT assay was performed as described by our previous publication with slight modification. In order to measure MTT and NO production, BV-2 cells were plated into a 96-well plate at a density of 4 × 10^4 cells/well. […] Then, nitrite (a soluble oxidation product of NO) was detected in the culture media by using the Griess reaction. The supernatant (50 µL) was collected and mixed with an equal volume of Griess reagent (1% sulfanilamide in phosphoric acid and 0.1% N-1-napthylethylenediamine dihydrochloride). The absorbance was measured at 570 nm by using a microplate reader. Sodium nitrite was used to create a standard curve from which the NO2 concentration was calculated. The cell viability was evaluated by spectrophotometrically measuring the reduction of yellow 3-[4,5-dimethylthiazol-2-yl]-2,5-diphenyltetrazolium bromide (MTT) to purple formazan crystals. MTT was dissolved in DMEM, added to the culture plate containing cells at a final concentration of 0.5 mg/mL, and incubated for 1 h. The medium containing the MTT solution was carefully removed, and 200 µL DMSO was added to each well. After solubilizing the stained cells to produce a formazan-colored solution, the optical density (OD) was measured on a microplate reader at 570 nm, and the results were expressed as a percentage of the LPS-treated group. The same plate was used for the NO and MTT assays. The cell supernatant was used for the NO assay, and the plated cells were used for the MTT assay.
(§2) The NO production and cell viability of LPS-activated BV-2 cells were measured after treatment with azine derivatives using Griess reagent and MTT assay, respectively.

[2] = MTT cell viability of LPS-activated BV-2 cells; details: mouse, LPS-activated BV-2 microglial cells; 20 µM compound; percentage of the LPS-only treatment group; mean ± standard deviation, three experiments
Experimental: as §1, §2

BV-2 cells = test: MTT cell viability of LPS-activated BV-2 cells
Experimental: as §1, §2

[3] = BV-2, 100 ng/mL LPS, 24 h, Griess reaction

IC50 [1, 3] [µM] | SMILES | viability at 24 h, 20 µM [2] [%] | Toxicity in BV-2 cells (discussion) (BV-2 cells) | IC50 ([1]; BV-2, 24 h) [µM]
26.3 | C(=NN=Cc1ccc(N(c2ccccc2)c2ccccc2)cc1)c1ccc(N(c2ccccc2)c2ccccc2)cc1 [Compound 9, 4,4′-Hydrazine-1,2-diylidenebis(methan-1-yl-1-ylidene)bis(N,N-diphenylaniline)] | 83.5 ± 7.78 |  | 
> 500 | C(=NN=Cc1cnc2ccccc2c1)c1cnc2ccccc2c1 [Compound 4, 1,2-Bis(quinolin-3-ylmethylene)hydrazine] | 91 ± 3.39 |  | 
58.5 | COc1ccc(/C=C/C=NN=C/C=C/c2ccc(OC)cc2)cc1 [Compound 1, 1,2-Bis((E)-3-(4-methoxyphenyl)allylidene)hydrazine] | 90.3 ± 9.37 |  | 
18.3 | [H]/N=C(/NC)NCCC[C@H](N)C(=O)O [L-NMMA, L-NG-monomethylarginine, reference compound] | 100 ± 3.41 |  | 
 | O=[N+]([O-])c1ccccc1/C=C/C=NN=C/C=C/c1ccccc1[N+](=O)[O-] [Compound 6, 1,2-Bis((E)-3-(2-nitrophenyl)allylidene)hydrazine] | 87.9 ± 19.5 |  | 47.4
50.1 | C/C(C=NN=C/C(C)=C/c1ccccc1)=C\c1ccccc1 [Compound 2, 1,2-Bis((E)-2-methyl-3-phenylallylidene)hydrazine] | 96.6 ± 1.75 |  | 

SMILES | IC50 [1, 3] [µM] | viability at 24 h, 20 µM [2] [%] | Toxicity in BV-2 cells (discussion) (BV-2 cells) | IC50 ([1]; BV-2, 24 h) [µM]
Clc1ccc(/C=C/C=NN=C/C=C/c2ccc(Cl)cc2)cc1 [Compound 7, 1,2-Bis((E)-3-(4-chlorophenyl)allylidene)hydrazine] | 39.9 | 77.2 ± 5.67 | high toxicity | 
C(C=C(c1ccccc1)c1ccccc1)=NN=CC=C(c1ccccc1)c1ccccc1 [Compound 8, 1,2-Bis(3,3-diphenylallylidene)hydrazine] | 47.9 | 69.5 ± 3.25 | high toxicity | 
